Experiments:
[1] = test system: tumour cells (at least 4 of a panel of ovarian, breast, lung, pancreatic, placenta, colon cell lines); experiment: In vitro cytotoxicity (cell proliferation, CellTiter-Glo), average over tumour cell line panel; assay type: cell-based; settings: average pIC50 on all cell lines tested; 5 nights incubation; CellTiter-Glo
Experimental: The ability of representative compounds of Formula I to inhibit proliferation of tumour cells in vitro was evaluated in at least 4 of the following cell lines: OVCAR-3 (ovarian, ATCC), SKOV-3 (ovarian, ATCC), IGROV-1 (ovarian, national research council of Canada (NRC)), OV-90 (ovarian, ATCC), OVKATE (Ovarian, Japanese Collection of Research Bioresources (JCRB) (JCRB1044)), JIMT-1 (breast, NRC), SK-BR-3 (breast, ATCC), T-47D (breast, ATCC), ZR-75-1 (breast, ATCC), MDA-MB-468 (breast, AddexBio), BT-20 (breast, ATCC), BT-474 (breast, NRC), MDA-MB-175 (breast, AddexBio), A549 (lung, collaborator), NCI-H226 (lung, NRC), NCI-H661 (lung, NRC), NCI-H1573 (lung, ATCC). NCI-H1563 (lung, ATCC), H358 (lung, collaborator), EBC-1 (lung, Xenotech), H1299 (lung, NRC), NCI-H292 (lung, ATCC), HCC817 (lung, ATCC), NCI-H441 (lung, ATCC), MIA-PaCa-2 (pancreatic, ATCC), BxPC-3 (pancreatic, ATCC), Panc-1 (pancreatic, ATCC), AsPC-1 (pancreatic, ATCC), JEG-3 (placenta, AddexBio), HT-29 (colon, ATCC).
Cells were cultured per vendor instructions and in log-phase growth were detached by brief incubation in 0.05% trypsin, then resuspended in respective culturing media at 20,000 cells/mL (except for ZR-75 cells, which were resuspended at 10,000 cells/mL). 50 μL/well (˜1000 cells/well) were transferred to sterile tissue culture (TC)-treated 384-well plates (ThermoFisher Scientific, Catalogue #164610) and incubated overnight at 37° C. with 5% CO2 to allow the cells to adhere to the plate surface. The next day, in a sterile, V-bottom, 96-well plate, test articles were titrated 1:3 in complete growth medium, creating a 10-point dose response titration with compounds at 3.5-times the desired final concentration. 20 μL from each dilution were added to the 384-well plate containing the seeded cells and these plates were incubated at 37° C. with 5% CO2 for 5 nights. Cell viability was quantified by first incubating with 15 μL/well of CellTiter-Glo® (Promega, Catalogue #G7572) for 30 minutes, then measuring luminescence with a microplate luminometer (BioTek® Synergy™ H1 Microplate Reader). IC50 values were determined by GraphPad Prism (GraphPad Software, San Diego, CA).
The results are presented in Table 7.1 and discussed in Example 7. Table 7.1 presents the results as average pIC50 values. pIC50=−log (IC50), thus, for example, pIC50=9 is equivalent to IC50=1 nM, and pIC50=6 is equivalent to IC50=1 μM.

herring sperm DNA = experiment: DNA melting temperature by differential scanning calorimetry (DSC); assay type: binding; settings: DSC; herring sperm DNA; DNA melting temperature = 68° C.
Experimental: Representative compounds prepared as described in Example 2 were assessed in two complementary DNA-binding assays. Increased melting temperature of herring sperm DNA was measured using differential scanning calorimetry (DSC) and binding kinetics were determined by surface plasmon resonance (SPR) using a short DNA hairpin sequence.
DSC experiments were conducted as described in Leng, 2003, Nucleic Acids Res., 31 (21): […], using a Nano DSC (TA Instruments, New Castle, DE) and analyzed using the NanoAnalyze™ software package. Herring sperm DNA solution (Invitrogen 15634017, 10 mg/mL) was diluted to 1 mg/mL (1.4 mM base pair) in BPE buffer (6 mM Na2HPO4, 2 mM NaH2PO4, 1 mM Na4EDTA, pH 7.0). Test articles (20 μL, 10 mM in DMSO) were added and allowed reach equilibrium binding (>3 h), any insoluble material was removed by low-speed centrifugation, then samples were heated from 25 to 110° C. at a scan rate of 1° C./min. Melting curves were plotted and melting temperature was determined using NanoAnalyze™.

[2] = Lipophilicity by experimental HPLC retention time; assay type: physicochemical; settings: HPLC retention time as measure of lipophilicity; C18, 10 to 90% CH3CN/H2O with 0.1% FA over 25 min
Experimental: The ability to kill neighboring cells (i.e. bystander effect) is an important property for ADC payloads. For a payload comprising a compound of Formula I to be capable of bystander killing, membrane permeability (or transport) is required and the ability of compounds of Formula I to cross cell membranes and exert a cytotoxic effect was expected to be heavily influenced by lipophilicity.
Compounds were analyzed using an Agilent 1260 HPLC (Agilent Technologies, Inc., Santa Clara, CA) equipped with a Diode array detector and using a Phenomenex Kinetex EVO C18 150×4.6, 2.6 μm column (Phenomenex, Torrance, CA), eluting with 10 to 90% CH3CN/H2O with 0.1% FA over 25 min.

For `CC(C)[C@H]1C(=O)O[C@H](C)[C@@H](NC(=O)c2nc3ccccc3cc2O)C(=O)N2CCCC[C@H]2C(=O)NCC(=O)N(C)CC(=O)N(C)[C@@H](C(C)C)C(=O)O[C@H](C)[C@@H](NC(=O)c2nc3ccccc3cc2O)C(=O)N2CCCC[C@H]2C(=O)NCC(=O)N(C)CC(=O)N1C` [Compound 22, N,N′-((7R,8R,11S,19aS,26R,27R,30S,38aS)-11,30-diisopropyl-8,12,15,27,31,34-hexamethyl-6,10,13,16,19,25,29,32,35,38-decaoxodotriacontahydro-2H,6H,10H,25H-dipyrido[2,1-b1: 2′,1′-l][1,17]dioxa[4,7,10,13,20,23,26,29]octaazacyclodotriacontine-7,26-diyl)bis(3-hydroxyquinoline-2-carboxamide)], the “pIC50 (average)” value [1] was 7.6, the “DNA melt (° C.)” value (herring sperm DNA) was 85 °C and the “HPLC” value [2] was 21.6 min.

In the case of `CC[C@H](C)[C@H]1C(=O)NC[C@@H](NC(=O)c2nc3ccccc3cc2O)C(=O)N2CCCC[C@H]2C(=O)NCC(=O)N(C)CC(=O)N(C)[C@@H]([C@@H](C)CC)C(=O)O[C@H](C)[C@@H](NC(=O)c2nc3ccccc3cc2O)C(=O)N2CCCC[C@H]2C(=O)NCC(=O)N(C)CC(=O)N1C` [Compound 30, N,N′-((7R,8R,11S,19aS,26R,30S,38aS)-11,30-di((S)-sec-butyl)-8,12,15,31,34-pentamethyl-6,10,13,16,19,25,29,32,35,38-decaoxotetratriacontahydro-2H,6H,10H-dipyrido[2,1-b1: 2′,1′-l][1]oxa[4,7,10,13,17,20,23,26,29]nonaazacyclodotriacontine-7,26-diyl)bis(3-hydroxyquinoline-2-carboxamide)], the “pIC50 (average)” value [1] is reported as 8.3, the “DNA melt (° C.)” value (herring sperm DNA) is reported as 85 °C and the “HPLC” value [2] is reported as 20.9 min.

With `CC(C)[C@H]1C(=O)NC[C@@H](NC(=O)c2nc3ccccc3cc2O)C(=O)N2CCCC[C@H]2C(=O)NCC(=O)N(C)CC(=O)N(C)[C@@H](C(C)C)C(=O)NC[C@@H](NC(=O)c2nc3ccccc3cc2O)C(=O)N2CCCC[C@H]2C(=O)NCC(=O)N(C)CC(=O)N1C` [Compound 35, N,N′-((7R,11S,19aS,26R,30S,38aS)-11,30-diisopropyl-12,15,31,34-tetramethyl-6,10,13,16,19,25,29,32,35,38-decaoxohexatriacontahydro-2H,6H-dipyrido[1,2-a:1′,2′-q][1,4,7,10,13,17,20,23,26,29]decaazacyclodotriacontine-7,26-diyl)bis(3-hydroxyquinoline-2-carboxamide)] the “pIC50 (average)” value [1] was 7.3, the “DNA melt (° C.)” value (herring sperm DNA) was 88 °C and the “HPLC” value [2] was 17.1 min.

With `CC(C)[C@H]1C(=O)N(C)C[C@@H](NC(=O)c2nc3ccccc3cc2O)C(=O)N2CCCC[C@H]2C(=O)NCC(=O)N(C)CC(=O)N(C)[C@@H](C(C)C)C(=O)N(C)C[C@@H](NC(=O)c2nc3ccccc3cc2O)C(=O)N2CCCC[C@H]2C(=O)NCC(=O)N(C)CC(=O)N1C` [Compound 42, N,N′-((7R,11S,19aS,26R,30S,38aS)-11,30-diisopropyl-9,12,15,28,31,34-hexamethyl-6,10,13,16,19,25,29,32,35,38-decaoxohexatriacontahydro-2H,6H-dipyrido[1,2-a:1′,2′-q][1,4,7,10,13,17,20,23,26,29]decaazacyclodotriacontine-7,26-diyl)bis(3-hydroxyquinoline-2-carboxamide)] the “pIC50 (average)” value [1] was 7.3, the “DNA melt (° C.)” value (herring sperm DNA) was 88 °C and the “HPLC” value [2] was 17.7 min.

With `CN1CC(=O)N2CCCC[C@H]2C(=O)NC[C@@H](NC(=O)c2nc3ccccc3cc2O)C(=O)N2CCCC[C@H]2C(=O)NCC(=O)N(C)CC(=O)N2CCCC[C@H]2C(=O)NC[C@@H](NC(=O)c2nc3ccccc3cc2O)C(=O)N2CCCC[C@H]2C(=O)NCC1=O` [Compound 49, N,N′-((7R,10aS,22aS,29R,32aS,44aS)-18,40-dimethyl-6,10,16,19,22,28,32,38,41,44-decaoxotetratetracontahydrotetrapyrido[1,2-a:1′,2′-j:1″,2″-q:1″,2′″-z][1,4,7,10,13,17,20,23,26,29]decaazacyclodotriacontine-7,29-diyl)bis(3-hydroxyquinoline-2-carboxamide)] the “pIC50 (average)” value [1] was 7.2, the “DNA melt (° C.)” value (herring sperm DNA) was 97 °C and the “HPLC” value [2] was 15.7 min.

With `CC(C)[C@H]1C(=O)NC[C@@H](NC(=O)c2nc3ccccc3cc2O)C(=O)N2CCCC[C@H]2C(=O)NCC(=O)N(C)CC(=O)N(C)[C@@H]([C@@H](C)OC(C)(C)C)C(=O)NC[C@@H](NC(=O)c2nc3ccccc3cc2O)C(=O)N2CCCC[C@H]2C(=O)NCC(=O)N(C)CC(=O)N1C` [Compound 54, N,N′-((7R,11S,19aS,26R,30S,38aS)-11-((R)-1-(tert-butoxy)ethyl)-30-isopropyl-12,15,31,34-tetramethyl-6,10,13,16,19,25,29,32,35,38-decaoxohexatriacontahydro-2H,6H-dipyrido[1,2-a:1′,2′-q][1,4,7,10,13,17,20,23,26,29]decaazacyclodotriacontine-7,26-diyl)bis(3-hydroxyquinoline-2-carboxamide)] the “pIC50 (average)” value [1] was 8.1, the “DNA melt (° C.)” value (herring sperm DNA) was 88 °C and the “HPLC” value [2] was 18.4 min.

In the case of `CC(C)[C@H]1C(=O)NC[C@@H](NC(=O)c2nc3ccccc3cc2O)C(=O)N2CCCC[C@H]2C(=O)NCC(=O)N(C)CC(=O)N(C)[C@@H]([C@@H](C)O)C(=O)NC[C@@H](NC(=O)c2nc3ccccc3cc2O)C(=O)N2CCCC[C@H]2C(=O)NCC(=O)N(C)CC(=O)N1C` [Compound 55, N,N′-((7R,11S,19aS,26R,30S,38aS)-11-((R)-1-hydroxyethyl)-30-isopropyl-12,15,31,34-tetramethyl-6,10,13,16,19,25,29,32,35,38-decaoxohexatriacontahydro-2H,6H-dipyrido[1,2-a:1′,2′-q][1,4,7,10,13,17,20,23,26,29]decaazacyclodotriacontine-7,26-diyl)bis(3-hydroxyquinoline-2-carboxamide)], the “pIC50 (average)” value [1] is reported as “inactive”, the “DNA melt (° C.)” value (herring sperm DNA) is reported as 86 °C and the “HPLC” value [2] is reported as 10.6 min.

For `CC[C@H](C)[C@H]1C(=O)NC[C@@H](NC(=O)c2nc3ccccc3cc2O)C(=O)N2CCCC[C@H]2C(=O)NCC(=O)N(C)CC(=O)N(C)[C@@H](C(C)C)C(=O)NC[C@@H](NC(=O)c2nc3ccccc3cc2O)C(=O)N2CCCC[C@H]2C(=O)NCC(=O)N(C)CC(=O)N1C` [Compound 72], the “pIC50 (average)” value [1] was 7.6, the “DNA melt (° C.)” value (herring sperm DNA) was 89 °C and the “HPLC” value [2] was 18.0 min.

— patent publication US20240376154A1, “BIS-INTERCALATING PEPTIDES, CONJUGATES AND METHODS OF USE” (ZYMEWORKS BC INC., priority 2023, published 2024)
